Laboratory results taken from US20250161238A1, “NMDAR Antagonists Prevent Ageing and Aging-Associated Conditions and Diseases Through Increasing 20S Proteasome Activity” (priority 2022, published 2025).
Counter-ions that a name gives are not always drawn. Like-named read-outs stand apart in the source and are kept apart here. Peptide text beside a SMILES is read from it. * marks the point of attachment. Cbz = O=C(OCc1ccccc1)*

Experiments:
proteasome [1] = target: T1, proteasome (Homo sapiens, UniProt P28072+P28074+Q99436); test: In-Cell Fluorogenic Proteasome Assay, HepG2; assay type: cell-based; design: endogenous in cells; host or cells: HepG2 (A9), T98G (A10), digitonin/Tween-permeabilised whole cells; details: for trypsin, chemotrypsin and caspase-like proteasome activities: whole HepG2 cell
T1 sequence (P28074 60-263): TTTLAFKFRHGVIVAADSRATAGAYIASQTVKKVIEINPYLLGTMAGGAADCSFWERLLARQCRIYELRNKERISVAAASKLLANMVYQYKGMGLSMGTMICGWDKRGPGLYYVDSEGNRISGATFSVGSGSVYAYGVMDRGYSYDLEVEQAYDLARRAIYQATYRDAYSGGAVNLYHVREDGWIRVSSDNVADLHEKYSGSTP
T1 sequence (Q99436 44-277): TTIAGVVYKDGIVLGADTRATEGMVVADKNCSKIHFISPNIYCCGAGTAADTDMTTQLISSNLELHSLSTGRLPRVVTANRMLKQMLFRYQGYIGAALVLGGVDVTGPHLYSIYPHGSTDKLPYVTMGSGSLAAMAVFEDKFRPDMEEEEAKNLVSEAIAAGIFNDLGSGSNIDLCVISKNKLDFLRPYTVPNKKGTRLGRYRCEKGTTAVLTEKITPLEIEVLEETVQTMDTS
T1 sequence (P28072 1-239): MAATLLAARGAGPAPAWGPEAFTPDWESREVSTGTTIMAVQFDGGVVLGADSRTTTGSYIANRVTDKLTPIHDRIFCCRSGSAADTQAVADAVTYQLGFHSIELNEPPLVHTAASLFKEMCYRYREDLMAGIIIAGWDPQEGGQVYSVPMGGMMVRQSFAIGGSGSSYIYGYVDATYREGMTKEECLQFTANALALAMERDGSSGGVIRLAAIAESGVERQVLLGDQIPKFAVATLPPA
Method: (§1) For a 96-well plate format, 8×10^3 cells per well were seeded. 24 hours later medium was changed with NMDAR blocker containing medium. Two hours later 100 μl of 2× flourescence cell buffer: (1 ml 1M tris hcl ph: 7.5, 500 μl 1M KCL, 200 μl […], 200 μl 0.1M MgCL2, 50 μl % 0.2 tween 20, 75 μl digitonin 20 mg/ml in DMSO ChemCruz cat no: sc-280675, 10 μl flourescence substrates including Suc-LLVY-AMC, Z-LLE-AMC, and Ac-RLR-AMC Ac-RLR-AMC, 8.1 ml H2O). After incubation at room temperature for a 5 minutes the flourescence of each sample were measured in a flourescence spectrometer (Biotek instrument-Synergy HT).

p21-GFP fusion protein = p21-GFP fusion protein amount in cells; assay type: cell-based, human
proteasome [2] = target: T1, proteasome; test: In-Cell Fluorogenic Proteasome Assay, T98G; assay type: cell-based; design: endogenous in cells; host or cells: T98G (A10), digitonin/Tween-permeabilised whole cells; details: whole T98G cell
Method: as §1

mice with GD symptoms = details: A/J, C3H/HeJ, DBA/2J, C57BL6/JolaHsd, CBE 25 mg/kg day, cited from earlier work
Ub-YFP = Ub-YFP degredation in Hep3B cells; assay type: cell-based, human
Method: This finding was supported by the following experiments; First, a model was developed to find inhibitor or inhibitors for the ubiquitin dependent degredation in the Hep3B cell line. For this purpose Hep3B cell expressing Ub-YFP genome were prepared. Ub-YFP is a system which was used to detect the ubiquitin dependent proteasome activity (26S). It is also known that Ub-YFP is not affected by the ubiquitin-independent protesome system. In further experiments, we tested molecules which are involved in different parts of the ubiquitination processes including PYR41 (Ubiquitin-activating enzyme (E1) inhibitor), NCC697923 (UBE2N E2 ubiquitin-conjugating enzyme inhibitor), SMER3 (ubiquitin ligase E3 inhibitor), SZL-P1-411 (Skp2 E3 ligase inhibitor), SKPIN C1 (Skp2 E3 ligase inhibitor), P005091 (USP7 inhibitor), Vialin A (USP4 and USP5 inhibitor), Spautin A (USP10 and USP13 inhibitor), ML 323 (USP1-UAF1 inhibitor), IU1 (USP14 inhibitor), and Mg132 (protesome inhibitor) for the inhibition of Ub-YFP degredation. […] MG132 was used as the inhibitor of the protesome activity (FIG. 12A). In the next experiment YFP protein amount was investigated in the presence of ketamin, Pyr41, and ketamin and Pyr41 together by western blot in Hep3B cell.
The Ub-R-YFP open-reading frame was obtained from Ub-R-YFP was a gift from Nico Dantuma (Addgene plasmid #11948). Ub-R-YFP sequence was obtained from the original vector by cutting the plasmid with NheI and NotI enzymes (Thermo Scientific), blunt ended and was cloned into pBSK-clo2D which is cut by EcoRV restriction enzyme (SibEnzyme, E059). Ub-R-YFP was obtained from the pBSK-clo2D vector by cutting with BamHI. pLV-EF1a-IRES-Puro (85132-Addgene) vector was cut by BamHI restriction enzyme and dephospharylated and ligated with Ub-R-YFP. After the orientation construct was determined, pLV-EF1a-IRES-Puro-Ub-R-YFP was reproduced in large volumes using DH5a E. Coli.
Hek293T cells were transfected with the pLV-EF1a-IRES-Puro-Ub-R-YFP and helper vectors psPAX2 and pMD2.G using Calcium Phosphate Mammalian Transfection Kit (631312-Takara bio). After 48 h supernatants containing Ub-R-YFP lentivirus were collected and target cells were infected under the presence of […] polybrene. After 24 hours, the media of the cells were replaced with media containing […] puromycin for 6 days. Then living cells were combined in a pool. Infected clones were maintained in the presence of 250 ng/ml puromycin.

CN1C(=O)[C@]23CC4=CC=C[C@H](O)[C@H]4N2C(=O)[C@@]1(CO)SS3 [Gliotoxin]
chemotrypsin activity of proteasome at low dose of Gliotoxin (proteasome [1]; 5 uM, compared to control): not statistically changed | chemotrypsin activity of proteasome at high dose of gliotoxin (proteasome [1]; 25 uM, in the presence of NMDR blockers): inhibited

OO [H2O2]
GFP signal of p21-GFP (p21-GFP fusion protein): increased the GFP signal dramatically

Cc1cc(C(=O)CN2CCCC2)c(C)n1-c1ccc(F)cc1 [IU1]
trypsin, chemotrypsin and caspase-like proteasome activities (proteasome [1]): increases

C[C@]12N[C@H](Cc3ccccc31)c1ccccc12 [MK801, (5S,10R)-(+)-5-Methyl-10,11-dihydro-5H dibenzo [a,d]cyclobepten-5,10-imine maleate]
trypsin, chemotrypsin and caspase-like proteasome activities (proteasome [1]): increased | trypsin, chemotrypsin and caspase-like proteasome activities (proteasome [2]): increased | life span of mice with Gaucher disease symptoms (mice with GD symptoms): dramatically extended | life span of mice with Gaucher disease symptoms (mice with GD symptoms; listed as MK-801): increase

CC(C)C[C@@H](C=O)NC(=O)[C@H](CC(C)C)NC(=O)[C@H](CC(C)C)NC(=O)OCc1ccccc1 [Mg132] (Cbz-Leu-Leu-Leu-aldehyde)
trypsin activity of proteasome (proteasome [1]; whole cell, HepG2, T98G and Hep3B): did not inhibit | chemotrypsin activity of proteasome (proteasome [1]; whole cell, substance alone): inhibits

CCOC(=O)c1ccc(N2NC(=O)/C(=C/c3ccc([N+](=O)[O-])o3)C2=O)cc1 [PYR41]
Ub-YFP degredation (Ub-YFP; Hep3B expressing Ub-YFP): inhibits | YFP protein amount (Ub-YFP; Hep3B, western blot): increase | p21-GFP fusion protein / GFP amount (p21-GFP fusion protein): increase
